Source: ChEMBL document CHEMBL5055655, “Design, synthesis and bioactivity evaluation of fisetin derivatives as potential anti-inflammatory agents against LPS-induced acute lung injury” (Bioorg Med Chem, 2021)
Active and inactive are the calls of the source. The calls are words filed in the database; no cut-off is given here.

Key:
[1] = tested on: J774.A1; test: Antiinflammatory activity in mouse J774.A1 cells assessed as inhibition of LPS-induced IL6 secretion at 10 uM incubated for 2 followed by LPS stimulation and measured after 22 hrs by ELISA relative to control; assay type: functional; conditions: for Activity: time 24.0 hrs
[2] = tested on: J774.A1; test: Antiinflammatory activity in mouse J774.A1 cells assessed as inhibition of LPS-induced TNF-alpha secretion at 10 uM incubated for 2 followed by LPS stimulation and measured after 22 hrs by ELISA relative to control; assay type: functional; conditions: for Activity: time 24.0 hrs
[3] = tested on: J774.A1; test: Cytotoxicity against mouse J774A.1 cells assessed as reduction in cell viability at 10 uM after 24 hrs by MTT assay; assay type: cell-based; conditions: j774.a1, 24 h
[4] = tested on: Mus musculus; test: Anti-inflammatory activity against C57BL/6 mouse model of LPS-induced acute lung injury assessed as reduction in cell count in broncho alveolar lavage fluid at 20 mg/kg, IG treated 0.5 hrs before LPS stimulation by ELISA; assay type: functional, organism-based
[5] = tested on: Mus musculus; test: Antiinflammatory activity against C57BL/6 mouse model of LPS-induced acute lung injury assessed as reduction in inflammatory infiltration at 20 mg/kg, IG treated 0.5 hrs before LPS challenge by H and E staining based histopathological analysis; assay type: functional, organism-based
[6] = tested on: J774.A1; test: Antiinflammatory activity in mouse J774.A1 cells assessed as inhibition of LPS-induced TNF-alpha secretion incubated for 2 followed by LPS stimulation and measured after 22 hrs by ELISA; assay type: functional, cell-based
[7] = tested on: Mus musculus; test: Antiinflammatory activity against C57BL/6 mouse model of LPS-induced acute lung injury assessed as reduction in alveolar septa thickening at 20 mg/kg, IG treated 0.5 hrs before LPS challenge by H and E staining based histopathological analysis; assay type: functional, organism-based
[8] = tested on: Mus musculus; test: Anti-inflammatory activity against C57BL/6 mouse model of LPS-induced acute lung injury assessed as reduction in IL6 secretion in broncho alveolar lavage fluid at 20 mg/kg, IG treated 0.5 hrs before LPS stimulation by ELISA; assay type: functional, organism-based
[9] = tested on: Mus musculus; test: Antiinflammatory activity against C57BL/6 mouse model of LPS-induced acute lung injury assessed as reduction in interstitial edema in lung tissue at 20 mg/kg, IG treated 0.5 hrs before LPS challenge by H and E staining based histopathological analysis; assay type: functional, organism-based
[10] = tested on: Mus musculus; test: Antiinflammatory activity against C57BL/6 mouse model of LPS-induced acute lung injury assessed as reduction in lung tissue destruction at 20 mg/kg, IG treated 0.5 hrs before LPS challenge by H and E staining based histopathological analysis; assay type: functional, organism-based
[11] = tested on: Mus musculus; test: Anti-inflammatory activity against C57BL/6 mouse model of LPS-induced acute lung injury assessed as reduction in TNF-alpha secretion in broncho alveolar lavage fluid at 20 mg/kg, IG treated 0.5 hrs before LPS stimulation by ELISA; assay type: functional, organism-based
[12] = tested on: J774.A1; test: Antiinflammatory activity in mouse J774.A1 cells assessed as inhibition of LPS-induced IL6 secretion incubated for 2 followed by LPS stimulation and measured after 22 hrs by ELISA; assay type: functional, cell-based
[13] = tested on: Mus musculus; test: Antiinflammatory activity in C57BL/6 mouse model of LPS-induced acute lung injury assessed as reduction in lung wet/dry ratio at 20 mg/kg, IG administered 30 mins prior to LPS instillation; assay type: functional, organism-based
[14] = tested on: Mus musculus; test: Antiinflammatory activity against C57BL/6 mouse model of LPS-induced acute lung injury assessed as reduction in pulmonary congestion at 20 mg/kg, IG treated 0.5 hrs before LPS challenge by H and E staining based histopathological analysis; assay type: functional, organism-based

Structure (SMILES)	Activity [1]	Activity [2]	Activity [3]	also measured
O=C(/C=C/c1ccc(O)c(O)c1)c1cc(OCCCN2CCCCC2)ccc1O	Active	Active	Non-Toxic	
O=C(/C=C/c1ccc(O)c(O)c1)c1ccc(Br)cc1O	Active	Active	Non-Toxic	
O=C(/C=C/c1ccc(O)c(O)c1)c1ccc(OCCCN2CCCC2)cc1O	Active	Active	Non-Toxic	
O=c1c(O)c(-c2ccc(O)c(O)c2)oc2ccc(F)cc12	Active	Active	Non-Toxic	
COc1cc(O)c(C(=O)/C=C/c2ccc(O)c(O)c2)cc1OC	Active	Active	Non-Toxic	
O=C(/C=C/c1ccc(O)c(O)c1)c1ccc(F)cc1O	Active	Active	Non-Toxic	
O=c1c(O)c(-c2ccc(O)c(O)c2)oc2cc(Br)ccc12	Active	Active	Non-Toxic	
CN1CCN(CCCOc2ccc(O)c(C(=O)/C=C/c3ccc(O)c(O)c3)c2)CC1	Active	Active	Non-Toxic	
O=C(/C=C/c1ccc(O)c(O)c1)c1ccc(OCCN2CCOCC2)cc1O	Active	Active	Non-Toxic	
CN(C)CCCOc1ccc(O)c(C(=O)/C=C/c2ccc(O)c(O)c2)c1	Active	Active	Non-Toxic	
O=C(/C=C/c1ccc(O)c(O)c1)c1ccc(OCCCN2CCCCC2)cc1O	Active	Active	Non-Toxic	
O=C(/C=C/c1ccc(O)c(O)c1)c1ccc(OCCN2CCCC2)cc1O	Active	Active	Non-Toxic	
O=C(/C=C/c1ccc(O)c(O)c1)c1ccc([N+](=O)[O-])cc1O	Active	Active	Non-Toxic	
O=C(/C=C/c1ccc(O)c(O)c1)c1cc(OCCCN2CCCC2)ccc1O	Active	Active	Non-Toxic	
O=C(/C=C/c1ccc(O)c(O)c1)c1ccc(OCCCN2CCOCC2)cc1O	Active	Active	Non-Toxic	
O=C(/C=C/c1ccc(O)c(O)c1)c1cc(OCCN2CCOCC2)ccc1O	Active	Active	Non-Toxic	
COc1ccc(C(=O)/C=C/c2ccc(O)c(O)c2)c(O)c1 [CALYTHROPSIN]	Active	Active	Non-Toxic	
O=C(/C=C/c1ccc(O)c(O)c1)c1cc(OCCCN2CCOCC2)ccc1O	Active	Active	Non-Toxic	
O=C(/C=C/c1ccc(O)c(O)c1)c1cc(F)ccc1O	Active	Active	Non-Toxic	
O=c1c(O)c(-c2ccc(O)c(O)c2)oc2ccc(Br)cc12	Active	Active	Non-Toxic	
O=C(/C=C/c1ccc(O)c(O)c1)c1cc(OCCN2CCCC2)ccc1O	Active	Active	Non-Toxic	
O=c1c(O)c(-c2ccc(O)c(O)c2)oc2cc(F)ccc12	Active	Active	Non-Toxic	
O=C(/C=C/c1ccc(O)c(O)c1)c1cc(Br)ccc1O	Active	Active	Non-Toxic	
O=c1c(O)c(-c2ccc(O)c(O)c2)oc2cc(O)ccc12 [FISETIN]	Active	Active	Non-Toxic	Activity [4]: Active
COc1ccc2c(=O)c(O)c(-c3ccc(O)c(O)c3)oc2c1	Active	Active	Non-Toxic	
CN(C)CCCOc1ccc(C(=O)/C=C/c2ccc(O)c(O)c2)c(O)c1			Non-Toxic	inhibition at 10 µM ([1]; time 24 hrs): 89.6%; Activity [5]: Active; IC50 ([6]; J774.A1, 22 h): 2.58 µM; inhibition ([6]; time 24.0 hrs): Dose-dependent effect; Activity [7]: Active; Activity [8]: Active; Activity [9]: Active; Activity [10]: Active; Activity [11]: Active; IC50 ([12]; J774.A1, 22 h): 8.25 µM; inhibition ([12]; time 24.0 hrs): Dose-dependent effect; inhibition at 10 µM ([2]; time 24 hrs): 76.4%; Activity [4]: Active; Activity [13]: Active; Activity [14]: Active
